Molecules are shown by their SMILES.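 Cultured in 96-well plates, cells were exposed to test compound for 48 hours across five concentrations. Abbreviation: GI50, concentration required for 50% inhibition of growth. Definition used: TGI = concentration required for complete inhibition of growth.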

This note sets out measurements from PubChem BioAssay (NCI).

Holding throughout (test): NCI-60 cell line screen, 48 h
The subject of assay [1] is CAKI-1 renal.
Assay [2] relates to DMS 273 small cell lung.
Assay [3] relates to HL-60(TB) leukemia.
Assay [4] deals with HOP-18 NSCLC.
Assay [5] deals with KM20L2 colon.
The test system of assay [6] is OVCAR-4 ovarian.
Assay [7] concerns UO-31 renal.
In assay [8] the test system is M19-MEL melanoma.
Assay [9] relates to BT-549 breast.
For assay [10], the system named is HS 578T breast.
The test system of assay [11] is NCI/ADR-RES ovarian.
Assay [12] relates to T-47D breast.

Turning to `Cc1nc(-n2nc(-c3ccccc3)cc2-c2ccccc2)sc1C(=O)CC(=O)C(=O)Nc1ccc(O)cc1`, the TGI in assay [1], in assay [2], in assay [3], in assay [4], in assay [5] and in assay [6] was greater than 100 µM in each case. For the same compound, in assay [7], the TGI is greater than 100 µM.
Regarding `CCCCOP1(=O)CC(C)=C(Cl)C(C)(OC)C1` (configuration not stated), the TGI in assay [2] is greater than 100 µM; in assay [3] it was 69 µM; in assay [5], greater than 100 µM; in assay [8], greater than 100 µM; in assay [6], greater than 100 µM; in [7], greater than 100 µM.
Turning to `Cn1cc(-c2csc(-c3cn(C(=O)OC(C)(C)C)c4ccccc34)n2)c2cccnc21`, the GI50 in [9] was 6.87 µM; in [1], 3.06 µM; in assay [3], 2.61 µM; in assay [10] it was 3.93 µM; in [11], 2.33 µM; in [6], 6.73 µM. Further, the GI50 in [12] is 3.71 µM; in [7], 3.46 µM. In addition, the TGI in assay [9] turned out to be 21.2 µM; in assay [1], 24.8 µM; in [3], 21.9 µM; in [10] it was 25.7 µM; in [11], 14.4 µM; in [6], 47 µM. Further, the TGI was found to be 15.6 µM in [12] and 21.3 µM in assay [7].
For the compound `NC1=C(O)C(=O)C(c2c[nH]c3ccc(OCc4ccccc4)cc23)O1` (configuration not stated), the TGI in assay [9], in assay [1], in assay [3], in [10], in [11] and in assay [6] was greater than 100 µM each time. Further, the TGI in assay [12] and in [7] was greater than 100 µM in each case.
Turning to `N#CNC1=NCCC(=O)N1CCc1c[nH]c2ccccc12`, the TGI in assay [2], in assay [3], in assay [8], in [6] and in [7] was greater than 100 µM each time.
Regarding `O=C(/C=C/c1ccc(Cl)cc1Cl)c1ccc(Cl)cc1Cl`, the GI50 in assay [9] was 16 µM; in [1] it was 36 µM; in [3] it was 18.3 µM; in assay [10], 20.1 µM; in [11] it was 25.1 µM; in [6], 26.6 µM. The GI50 was 24.2 µM in assay [12] and 15 µM in assay [7]. For the same compound, the TGI in assay [9] was 36.1 µM; in [1] it was greater than 92.8 µM; in [3] it was 43.9 µM; in [10], 58.2 µM; in assay [11], greater than 77.2 µM; in assay [6], 88.5 µM. Further, the TGI in assay [12] was greater than 72.7 µM; in assay [7], greater than 44.8 µM.
As to `COc1ccc(/C=C/C(=O)c2ccc(Nc3nc(Nc4ccc(F)cc4)nc(Nc4ccc(F)cc4)n3)cc2)cc1`, the GI50 in [9] was 14 µM; in assay [1], 38.3 µM; in assay [3] it was 4.96 µM; in assay [10] it was 14.4 µM; in assay [11] it was 5.63 µM; in assay [6], 27.4 µM. For the same compound, the values for the GI50 in assay [12] and in [7] were 5.42 µM and 10.2 µM, respectively. The TGI was 36.4 µM in [9]; greater than 100 µM in assay [1]; 30.5 µM in assay [3]; 59.6 µM in assay [10]; 33 µM in [11]; greater than 100 µM in [6]. Also, the results for the TGI in [12] and in [7] were 52.5 µM and 31.9 µM, respectively.
Turning to `CCN(CC)CCNc1ccc([N+](=O)[O-])c2nc3ccc(OC)cc3c(N)c12`, the TGI in assay [9] came to 2.72 µM; in assay [1], 3.85 µM; in assay [3], 0.246 µM; in [10], 2.89 µM; in assay [11], 3.53 µM; in [6], 1.91 µM. The values for the TGI in assay [12] and in assay [7] were 3.16 µM and 3.13 µM, respectively.
With `COC1CC(n2cc(F)c(N)nc2=O)OC1CO` (configuration not stated), the TGI in [1], in assay [2], in assay [3], in assay [4], in assay [5] and in assay [6] was greater than 100 µM throughout. Further, the TGI in [7] is greater than 100 µM.
In the case of `Nc1ccn(C2CC3OCC3O2)c(=O)n1` (configuration not stated), the TGI in assay [9], in [1], in [3], in assay [10], in assay [11] and in assay [6] was greater than 100 µM in each case. In addition, the TGI in [12] and in assay [7] was greater than 100 µM each time.
On to `O=C1C(=Cc2ccc(F)cc2)C(=O)c2ccccc21`, for which the TGI in assay [1], in [2], in assay [3], in assay [5], in [8] and in assay [6] was greater than 100 µM in each case. Also, the TGI in assay [7] is greater than 100 µM.
Consider `CNC(=O)c1cc(-c2ccc(F)cc2)cc(-c2ccc(S(=O)(=O)N3CCCC3)cc2)c1N`, for which the GI50 is greater than 21.2 µM in assay [9]; 12.6 µM in [1]; 7.41 µM in assay [3]; greater than 11.1 µM in assay [10]; 16.2 µM in assay [11]; 16.1 µM in assay [6]. In addition, the values for the GI50 in assay [12] and in assay [7] were 10.5 µM and 11.3 µM, respectively. The TGI in assay [9], in assay [1], in assay [3], in assay [10], in assay [11] and in [6] was greater than 25 µM in each case. Moreover, the TGI in assay [12] and in assay [7] was greater than 25 µM throughout.
Take `N#CC(C#N)C(c1ccccc1)c1ccccc1`: the TGI in assay [1], in assay [2], in assay [3], in assay [4], in assay [5] and in assay [6] was greater than 100 µM each time. In assay [7], the TGI was greater than 100 µM.
